Reference: BigSolDB 2.1

NC(=O)c1cccnc1Cl
solubility (mole fraction)
Conditions | in 1,4-dioxane | in 2-ethoxyethanol | in 2-methoxyethanol | in DMAc | in DMF | in ethanol | in ethylene glycol | in methanol | in methyl acetate | in water
278.15 K | – | 0.0124 | 0.0205 | 0.132 | 0.0981 | 0.00303 | 0.00783 | 0.00747 | 0.00215 | 0.00081
283.15 K | – | 0.0154 | 0.0246 | 0.141 | 0.107 | 0.00366 | 0.00946 | 0.00893 | 0.00263 | 0.00102
288.15 K | 0.00632 | 0.0182 | 0.0293 | 0.152 | 0.115 | 0.00443 | 0.0114 | 0.0104 | 0.00331 | 0.00127
293.15 K | 0.0077 | 0.0224 | 0.0352 | 0.163 | 0.126 | 0.00539 | 0.0136 | 0.0122 | 0.0041 | 0.00157
298.15 K | 0.00958 | 0.0267 | 0.0413 | 0.175 | 0.137 | 0.00698 | 0.0167 | 0.0148 | 0.00506 | 0.00193
303.15 K | 0.0118 | 0.0311 | 0.0478 | 0.187 | 0.149 | 0.00821 | 0.0201 | 0.0171 | 0.00587 | 0.00237
308.15 K | 0.0136 | 0.0375 | 0.0542 | 0.199 | 0.161 | 0.0101 | 0.024 | 0.0204 | 0.00699 | 0.00291
313.15 K | 0.0168 | 0.0437 | 0.0642 | 0.213 | 0.175 | 0.0124 | 0.0283 | 0.0238 | 0.00885 | 0.00351
318.15 K | 0.02 | 0.0524 | 0.0747 | 0.227 | 0.188 | 0.0147 | 0.034 | 0.0278 | 0.0105 | 0.00437
323.15 K | 0.0244 | 0.0615 | 0.0856 | 0.24 | 0.202 | 0.0178 | 0.0403 | 0.0324 | 0.0127 | 0.00546
